The values below come from ChEMBL document CHEMBL4376889, “Discovery of a Brain-Penetrant ATP-Competitive Inhibitor of the Mechanistic Target of Rapamycin (mTOR) for CNS Disorders” (J Med Chem, 2020).

Structures are written as SMILES. Values after ≈ are worked out from the molar mass of the structure shown. Active and inactive are the calls of the source. The rule behind the calls is not given here. Bounds are passed on as bounds.

One series deals with MDR1. Put plainly: Efflux ratio of permeability from basolateral to apical over apical to basolateral side in MDCK-MDR1 cells. Particulars: dog. Type of series: ADME, cell-based, Canis lupus familiaris.
The target of a further series is Cytochrome P450 3A4 (Homo sapiens, UniProt P08684). Put plainly: Inhibition of CYP3A4 (unknown origin). Type of series: ADME.
Series [1] concerns the target T1, Serine/threonine-protein kinase mTOR (Mus musculus, UniProt Q9JLN9). As to the kind of experiment: Inhibition of mTOR in mouse MEF cells harboring TSC1 deletion mutant assessed as reduction in PS6 phosphorylation incuabted for 2 hrs alexa fluor 594 and Hoechst staining based fluorescence assay. Type of series: cell-based.
A short description of series [2]: Solubility of compound at pH 6.8. Type of series: physicochemical. Particulars: buffer.
Series [3] can be described thus: Stability in rat liver microsomes assessed as intrinsic clearance at 1 uM incubated for 30 mins by LC-MS/MS analysis. Format: ADME, Microsome. Conditions: read-out: CLH. On the technique in general: Liver microsomes are vesicles of endoplasmic reticulum, rich in cytochrome P450 enzymes.
In series [4] the test system is Cortical neurone. As to the kind of experiment: Inhibition of overgrowth of mouse primary cortical neuron harboring TSC1 deletion mutant at 20 nM incubated for 7 days by immunofluorescence assay. Format: functional, cell-based.
Series [5] relates to Cortical neurone. Put plainly: Inhibition of oversizing of mouse primary cortical neuron harboring TSC1 deletion mutant at 20 nM incubated for 7 days by immunofluorescence assay. Format: functional, cell-based. Particulars: 168 h.
The next series relates to Mus musculus. As to the kind of experiment: Protection against C57BL/6J mouse model of neuronal mTOR hyperactivity assessed as survival rate at 6 mg/kg, ip administered on postnatal day 22 daily and measured on postnatal day 52 (reference value: 48 %). Type of series: functional.
In series [6] the target is T1, Serine/threonine-protein kinase mTOR. As to the kind of experiment: Inhibition of mTOR in mouse TSC1-/- MEF cells assessed as inhibition of S6 Ser240/244 phosphorylation incubated for 2 hrs by fluorescence based assay. Type of series: cell-based.
Series [7] addresses Phosphatidylinositol 4,5-bisphosphate 3-kinase catalytic subunit alpha isoform (Homo sapiens, UniProt P42336). Put plainly: Inhibition of PI3Kalpha (unknown origin).
The target of series [8] is Phosphatidylinositol 4,5-bisphosphate 3-kinase catalytic subunit beta isoform (Homo sapiens, UniProt P42338). As to the kind of experiment: Inhibition of PI3Kbeta (unknown origin).
Series [9] has as its target Phosphatidylinositol 4,5-bisphosphate 3-kinase catalytic subunit gamma isoform (Homo sapiens, UniProt P48736). Put plainly: Inhibition of PI3Kgamma (unknown origin).
Series [10] concerns the target Phosphatidylinositol 4,5-bisphosphate 3-kinase catalytic subunit delta isoform (Homo sapiens, UniProt O00329). As to the kind of experiment: Inhibition of PI3Kdelta (unknown origin).
The next series addresses Cytochrome P450 2D6 (Homo sapiens, UniProt P10635). As to the kind of experiment: Inhibition of CYP2D6 (unknown origin). Format: ADME.
A further series deals with Cytochrome P450 2C9 (Homo sapiens, UniProt P11712). As to the kind of experiment: Inhibition of CYP2C9 (unknown origin). Format: ADME.
Series [11] can be described thus: Stability in mouse liver microsomes assessed as intrinsic clearance. Format: ADME, Microsome. Conditions: read-out: CLH.
Series [12] is described as follows: Stability in rat liver microsomes assessed as intrinsic clearance. Format: ADME, Microsome. Particulars: read-out: CLH.
Series [13] can be described thus: Stability in dog liver microsomes assessed as intrinsic clearance. Type of series: ADME, Canis lupus familiaris, Microsome. Particulars: read-out: CLH.
Series [14] can be described thus: Stability in monkey liver microsomes assessed as intrinsic clearance. Format: ADME, Macaca mulatta, Microsome. Particulars: rhesus monkey, read-out: CLH.
Series [15] is described as follows: Stability in human liver microsomes assessed as intrinsic clearance. Format: ADME, Microsome. Particulars: read-out: CLH.

Cytochrome P450 3A4, sequence (P08684 whole entry): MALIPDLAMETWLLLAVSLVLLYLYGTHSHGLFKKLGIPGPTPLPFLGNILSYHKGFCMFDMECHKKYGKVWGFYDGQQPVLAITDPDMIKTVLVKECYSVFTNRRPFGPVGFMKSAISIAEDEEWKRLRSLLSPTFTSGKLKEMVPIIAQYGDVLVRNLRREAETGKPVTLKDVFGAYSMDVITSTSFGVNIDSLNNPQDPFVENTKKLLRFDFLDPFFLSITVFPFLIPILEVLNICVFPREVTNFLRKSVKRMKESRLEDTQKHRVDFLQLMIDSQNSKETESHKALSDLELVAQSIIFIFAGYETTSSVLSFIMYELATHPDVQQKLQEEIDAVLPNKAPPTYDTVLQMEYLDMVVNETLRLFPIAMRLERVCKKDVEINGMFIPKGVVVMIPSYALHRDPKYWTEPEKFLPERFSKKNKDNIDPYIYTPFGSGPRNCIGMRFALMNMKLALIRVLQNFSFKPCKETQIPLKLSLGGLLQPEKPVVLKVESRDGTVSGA
Phosphatidylinositol 4,5-bisphosphate 3-kinase catalytic subunit delta isoform, sequence (O00329 whole entry, canonical isoform): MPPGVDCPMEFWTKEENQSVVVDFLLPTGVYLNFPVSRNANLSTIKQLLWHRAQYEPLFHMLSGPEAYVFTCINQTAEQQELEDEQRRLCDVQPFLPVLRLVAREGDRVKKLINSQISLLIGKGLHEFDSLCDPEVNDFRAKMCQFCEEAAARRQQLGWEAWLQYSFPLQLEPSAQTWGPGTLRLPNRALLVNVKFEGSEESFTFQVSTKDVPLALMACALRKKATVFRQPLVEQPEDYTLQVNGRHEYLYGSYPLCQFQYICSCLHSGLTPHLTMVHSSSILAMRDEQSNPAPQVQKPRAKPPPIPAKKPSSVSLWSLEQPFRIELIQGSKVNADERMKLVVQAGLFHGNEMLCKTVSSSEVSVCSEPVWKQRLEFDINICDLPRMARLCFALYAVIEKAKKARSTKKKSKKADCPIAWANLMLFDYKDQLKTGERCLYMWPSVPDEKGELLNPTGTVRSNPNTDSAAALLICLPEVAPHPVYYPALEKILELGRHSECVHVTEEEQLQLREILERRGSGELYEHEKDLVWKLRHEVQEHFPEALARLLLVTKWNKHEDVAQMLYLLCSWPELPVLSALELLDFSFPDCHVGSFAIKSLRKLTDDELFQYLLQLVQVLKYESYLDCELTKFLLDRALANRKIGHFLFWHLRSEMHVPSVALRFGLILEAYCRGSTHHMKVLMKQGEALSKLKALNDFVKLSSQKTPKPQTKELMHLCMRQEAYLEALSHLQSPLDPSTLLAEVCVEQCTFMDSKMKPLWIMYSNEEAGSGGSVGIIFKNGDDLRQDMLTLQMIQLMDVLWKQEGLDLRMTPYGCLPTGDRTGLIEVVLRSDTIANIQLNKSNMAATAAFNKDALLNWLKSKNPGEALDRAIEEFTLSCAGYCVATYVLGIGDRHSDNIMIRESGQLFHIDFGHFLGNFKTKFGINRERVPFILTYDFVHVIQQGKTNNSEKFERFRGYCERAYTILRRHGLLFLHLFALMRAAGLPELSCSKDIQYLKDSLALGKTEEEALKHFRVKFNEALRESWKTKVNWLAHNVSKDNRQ
Phosphatidylinositol 4,5-bisphosphate 3-kinase catalytic subunit beta isoform, sequence (P42338 whole entry, canonical isoform): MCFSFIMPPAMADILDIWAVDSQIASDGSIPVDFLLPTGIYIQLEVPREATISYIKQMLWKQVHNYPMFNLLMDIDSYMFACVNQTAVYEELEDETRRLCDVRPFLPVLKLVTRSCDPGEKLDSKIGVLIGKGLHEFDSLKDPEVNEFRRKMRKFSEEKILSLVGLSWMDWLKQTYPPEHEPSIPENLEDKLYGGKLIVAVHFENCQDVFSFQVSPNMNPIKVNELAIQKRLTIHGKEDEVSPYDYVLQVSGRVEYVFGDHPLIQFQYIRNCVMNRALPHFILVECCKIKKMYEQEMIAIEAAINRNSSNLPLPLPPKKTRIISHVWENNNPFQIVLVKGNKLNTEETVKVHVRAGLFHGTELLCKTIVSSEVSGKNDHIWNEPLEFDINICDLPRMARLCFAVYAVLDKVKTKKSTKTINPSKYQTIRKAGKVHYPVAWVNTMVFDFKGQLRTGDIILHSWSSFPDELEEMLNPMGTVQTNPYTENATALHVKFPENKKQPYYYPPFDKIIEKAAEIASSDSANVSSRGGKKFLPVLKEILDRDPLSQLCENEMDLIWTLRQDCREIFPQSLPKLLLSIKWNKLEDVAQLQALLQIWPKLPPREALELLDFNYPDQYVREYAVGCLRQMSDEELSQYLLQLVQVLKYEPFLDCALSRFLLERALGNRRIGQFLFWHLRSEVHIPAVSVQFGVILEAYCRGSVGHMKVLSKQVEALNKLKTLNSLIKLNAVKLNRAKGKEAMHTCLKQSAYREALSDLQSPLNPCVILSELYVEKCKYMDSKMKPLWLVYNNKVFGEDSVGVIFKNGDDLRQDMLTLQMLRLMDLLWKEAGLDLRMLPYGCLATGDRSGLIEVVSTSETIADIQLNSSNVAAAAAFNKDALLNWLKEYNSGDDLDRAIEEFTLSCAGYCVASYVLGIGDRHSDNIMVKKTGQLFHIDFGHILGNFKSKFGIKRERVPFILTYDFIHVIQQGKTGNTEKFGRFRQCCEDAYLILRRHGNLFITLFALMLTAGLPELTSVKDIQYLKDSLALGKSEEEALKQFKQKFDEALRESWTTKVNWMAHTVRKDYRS
Phosphatidylinositol 4,5-bisphosphate 3-kinase catalytic subunit alpha isoform, sequence (P42336 whole entry, canonical isoform): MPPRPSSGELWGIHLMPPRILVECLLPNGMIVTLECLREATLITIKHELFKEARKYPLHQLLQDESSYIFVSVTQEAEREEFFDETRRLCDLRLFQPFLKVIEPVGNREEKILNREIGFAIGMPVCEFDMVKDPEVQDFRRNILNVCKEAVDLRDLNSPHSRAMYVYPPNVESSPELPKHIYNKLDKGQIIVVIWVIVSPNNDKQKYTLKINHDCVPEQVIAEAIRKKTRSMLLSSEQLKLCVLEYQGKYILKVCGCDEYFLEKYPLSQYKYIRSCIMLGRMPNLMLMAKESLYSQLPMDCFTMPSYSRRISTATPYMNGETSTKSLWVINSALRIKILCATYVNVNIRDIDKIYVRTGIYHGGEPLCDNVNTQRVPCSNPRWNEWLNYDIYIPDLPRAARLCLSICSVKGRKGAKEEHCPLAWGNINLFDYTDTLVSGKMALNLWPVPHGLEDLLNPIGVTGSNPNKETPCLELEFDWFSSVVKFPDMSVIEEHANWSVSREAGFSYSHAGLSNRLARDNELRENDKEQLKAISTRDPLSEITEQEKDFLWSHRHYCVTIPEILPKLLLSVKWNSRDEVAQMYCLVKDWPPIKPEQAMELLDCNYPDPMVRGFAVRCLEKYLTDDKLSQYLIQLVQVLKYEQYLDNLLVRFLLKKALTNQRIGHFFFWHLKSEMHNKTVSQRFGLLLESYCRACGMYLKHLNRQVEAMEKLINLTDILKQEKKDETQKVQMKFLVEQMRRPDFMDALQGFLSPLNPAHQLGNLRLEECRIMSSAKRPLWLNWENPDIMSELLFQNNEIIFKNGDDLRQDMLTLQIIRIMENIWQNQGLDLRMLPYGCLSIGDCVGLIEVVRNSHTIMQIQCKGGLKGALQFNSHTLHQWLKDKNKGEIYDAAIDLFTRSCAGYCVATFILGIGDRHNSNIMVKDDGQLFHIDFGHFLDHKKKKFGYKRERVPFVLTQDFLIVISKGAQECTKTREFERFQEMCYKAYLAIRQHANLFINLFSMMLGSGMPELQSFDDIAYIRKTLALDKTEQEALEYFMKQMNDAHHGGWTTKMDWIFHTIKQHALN
Cytochrome P450 2D6, sequence (P10635 whole entry): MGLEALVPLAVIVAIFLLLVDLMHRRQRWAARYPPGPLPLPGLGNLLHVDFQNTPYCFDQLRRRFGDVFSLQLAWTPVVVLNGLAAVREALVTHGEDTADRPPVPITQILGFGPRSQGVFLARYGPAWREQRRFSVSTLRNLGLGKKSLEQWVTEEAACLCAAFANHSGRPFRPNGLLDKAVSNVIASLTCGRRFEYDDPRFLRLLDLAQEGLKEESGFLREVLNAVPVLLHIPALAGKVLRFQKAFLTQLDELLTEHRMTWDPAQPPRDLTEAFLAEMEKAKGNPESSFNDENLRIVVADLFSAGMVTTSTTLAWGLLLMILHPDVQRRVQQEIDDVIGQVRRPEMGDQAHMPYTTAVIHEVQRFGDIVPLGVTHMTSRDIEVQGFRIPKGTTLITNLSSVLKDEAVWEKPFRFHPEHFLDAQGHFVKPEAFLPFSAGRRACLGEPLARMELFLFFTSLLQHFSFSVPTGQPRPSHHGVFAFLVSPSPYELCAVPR
Cytochrome P450 2C9, sequence (P11712 whole entry): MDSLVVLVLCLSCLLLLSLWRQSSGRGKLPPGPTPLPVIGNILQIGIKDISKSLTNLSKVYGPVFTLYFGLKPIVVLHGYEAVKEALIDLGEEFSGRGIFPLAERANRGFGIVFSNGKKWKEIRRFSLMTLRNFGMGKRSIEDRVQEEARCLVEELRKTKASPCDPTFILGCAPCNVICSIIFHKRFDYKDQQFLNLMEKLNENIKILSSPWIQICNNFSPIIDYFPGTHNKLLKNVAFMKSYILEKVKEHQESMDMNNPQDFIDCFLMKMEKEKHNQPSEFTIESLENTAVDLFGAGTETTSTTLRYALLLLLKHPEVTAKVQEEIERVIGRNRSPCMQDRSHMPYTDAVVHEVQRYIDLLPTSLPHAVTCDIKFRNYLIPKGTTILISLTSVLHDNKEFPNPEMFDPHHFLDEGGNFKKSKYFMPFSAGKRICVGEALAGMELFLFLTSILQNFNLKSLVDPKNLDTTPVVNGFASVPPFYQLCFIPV

Turning to `C[C@@H]1COCCN1c1nc(N2CCOC[C@@H]2C)nc2sc(-c3cn[nH]n3)nc12`, in the series on MDR1, the efflux ratio (in general, the permeability from basolateral to apical divided by that in the opposite direction, in the common usage) worked out at 0.65. In addition, the K on Cytochrome P450 3A4 amounted to 0.01 min⁻¹. For the same molecule, the IC50 – broadly, the concentration at which inhibition is half-maximal – in series [1] worked out at 0.0069 µM.

Take `C[C@@H]1COCCN1c1nc(N2CCCOCC2)nc2sc(-c3cc[nH]n3)nc12`: on Cytochrome P450 3A4, the K stood at 0.011 min⁻¹. Besides, the IC50 in series [1] was 0.0027 µM. Also, in series [2], the solubility (in general, the concentration that dissolves in the medium under given conditions) is less than 2 µg/mL. The microsomal CLint at 1 µM in [3] stood at 164 µL/min/mg.

For `C[C@@H]1COCCN1c1nc(N2CCOC[C@@H]2C)nc2sc(-c3cccc(O)c3)nc12`, at Cytochrome P450 3A4, the K was determined as 0.035 min⁻¹. In series [1], the IC50 worked out at 0.278 µM.

In the case of `C[C@@H]1COCCN1c1nc(CN2CCOCC2)nc2sc(-c3cc[nH]n3)nc12`, the K at Cytochrome P450 3A4 was 0.008 min⁻¹. For the same molecule, the IC50 in series [1] is 0.092 µM. In series [2], the solubility came to 325 µg/mL (≈ 809 µM). Further, the microsomal CLint at 1 µM in [3] is more than 924 µL/min/mg.

At Cytochrome P450 3A4, `C[C@@H]1COCCN1c1nc(N2CCOC[C@@H]2C)nc2sc(-c3cccc4[nH]ccc34)nc12` came in with a K of 0.027 min⁻¹. Besides, the IC50 in [1] came to 0.305 µM.

`CO[C@H]1C[C@@H]2CC[C@@H](C)[C@@](O)(O2)C(=O)C(=O)N2CCCC[C@H]2C(=O)O[C@H]([C@H](C)C[C@@H]2CC[C@@H](OCCO)[C@H](OC)C2)CC(=O)[C@H](C)/C=C(\C)[C@@H](O)[C@@H](OC)C(=O)[C@H](C)C[C@H](C)/C=C/C=C/C=C/1C` [EVEROLIMUS]: in the series on Cortical neurone [4], the inhibition entry was “Active”. The same molecule displayed an IC50 in the series with Cortical neurone [5] of 0.00015 µM. Besides, in the series on Mus musculus, the Activity is reported as 100%.

Consider `C[C@@H]1COCCN1c1ncnc2sc(-c3cc[nH]n3)nc12`, for which the K on Cytochrome P450 3A4 amounted to 0.006 min⁻¹. Besides, the IC50 in series [1] stood at 0.603 µM. The microsomal CLint at 1 µM in series [3] stood at 100 µL/min/mg.

For the molecule `C[C@@H]1COCCN1c1nc(N2CCOC[C@@H]2C)nc2sc(-c3c[nH]cn3)nc12`, the efflux ratio in the series on MDR1 is 0.89. For the same molecule, the K at Cytochrome P450 3A4 came out at 0.013 min⁻¹. In [1], the IC50 came to 0.0078 µM.

Consider `C[C@@H]1COCCN1c1nc(N2CCOC[C@@H]2C)nc2[nH]c(-c3cccc4[nH]ccc34)nc12`, for which, in the series on MDR1, the efflux ratio came to 0.95. Besides, the IC50 in series [6] was 0.038 µM; in series [7], 6.6 µM; in series [8], more than 10 µM; in [9] it was 6.6 µM; in series [10], 0.8 µM; against Cytochrome P450 2D6 it was 12.8 µM. On Cytochrome P450 2C9, this molecule displayed an IC50 of 1.98 µM. This molecule displayed a K at Cytochrome P450 3A4 of 0.08 min⁻¹. Also, the microsomal CLint in [11] worked out at 62 µL/min/mg; in series [12], 35 µL/min/mg; in series [13], 60 µL/min/mg; in [14] it was 121 µL/min/mg; in series [15], 27 µL/min/mg.

With `CC(C)c1nc(N2CCOC[C@H]2C)c2nc(-c3cc[nH]n3)sc2n1`, the K on Cytochrome P450 3A4 was determined as 0.012 min⁻¹. For the same molecule, the IC50 in [1] was determined as 0.0037 µM. In series [2], this molecule displayed a solubility of less than 1 µg/mL. The microsomal CLint at 1 µM in [3] was 104 µL/min/mg.

On Cytochrome P450 3A4, `C[C@@H]1COCCN1c1nc(N2CCOCC2)nc2sc(-c3cc[nH]n3)nc12` yielded a K of 0.011 min⁻¹. Also, the IC50 in series [1] came to 0.0053 µM. Also, in series [2], the solubility is 4 µg/mL (≈ 10.3 µM). Moreover, in series [3], the microsomal CLint at 1 µM is 24 µL/min/mg.

`C[C@@H]1COCCN1c1nc(N2CCN(C)CC2)nc2sc(-c3cc[nH]n3)nc12`: the K at Cytochrome P450 3A4 stood at 0.001 min⁻¹. In [1], the IC50 was 0.134 µM. In series [2], this molecule came in with a solubility of 191 µg/mL (≈ 477 µM). In series [3], the microsomal CLint at 1 µM was more than 924 µL/min/mg.

On to `C[C@@H]1COCCN1c1nc(N2CCOC[C@@H]2C)nc2sc(-c3cn[nH]c3)nc12`, for which the K on Cytochrome P450 3A4 was found to be 0.02 min⁻¹. In series [1], the IC50 was determined as 0.056 µM.

Molecule `C[C@@H]1COCCN1c1nc(C2CCOCC2)nc2sc(-c3cc[nH]n3)nc12` came in with a K at Cytochrome P450 3A4 of 0.003 min⁻¹. Moreover, in [1], the IC50 came to 0.0063 µM. Moreover, the solubility in [2] is 9 µg/mL (≈ 23.3 µM). The microsomal CLint at 1 µM in [3] worked out at 37 µL/min/mg.
